According to patent publication US12685755B2, “Methods and compositions for treating mucosal tissue disorders” (The University of North Carolina at Chapel Hill, priority 2012, dated 2026):

Tests used:
[1] = tested on: Pseudomonas aeruginosa strain PAO1; test: nitrate dependent growth of PAO1 under anaerobic atmosphere; format: cell-based; details: for nitrate dependent growth: LB broth with nitrate, anaerobic atmosphere; for inhibition of growth: anaerobic
Method: FIG. 1. […] Pseudomonas aeruginosa strain PAO1 is capable of growing in the absence of oxygen using nitrate for respiration. […] The studies presented in FIG. 1 examine whether glutathione influences the growth of PAO1 either in the presence or absence of nitrate under either ambient (aerobic) or anaerobic atmospheres. […]
FIG. 4. […] To examine this possibility, S-nitrosoglutathione (Sigma) was tested for influence on growth of PAO1 in TSBN (1% KNO3) with and without 6.4 mM glutathione.
(§1) FIG. 7. […] The next series of experiments was designed to determine if there were any influences of ascorbate on glutathione potentiation of the growth inhibition of the RNI (FIGS. 7, 8 and 9).

[2] = molecular target: CB2 receptor (Homo sapiens, UniProt P34972); details: cited from earlier work
Sequence of CB2 receptor (P34972 whole entry): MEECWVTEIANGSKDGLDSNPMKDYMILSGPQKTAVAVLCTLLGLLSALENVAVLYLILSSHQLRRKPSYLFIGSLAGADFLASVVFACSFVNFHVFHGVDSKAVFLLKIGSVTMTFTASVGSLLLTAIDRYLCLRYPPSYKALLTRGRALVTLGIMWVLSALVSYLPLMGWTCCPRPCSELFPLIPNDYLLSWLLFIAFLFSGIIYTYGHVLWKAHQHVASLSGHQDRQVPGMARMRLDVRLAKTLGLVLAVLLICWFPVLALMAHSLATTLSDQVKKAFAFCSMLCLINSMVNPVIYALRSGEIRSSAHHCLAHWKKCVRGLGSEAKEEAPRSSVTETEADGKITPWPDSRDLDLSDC

[3] = tested on: Pseudomonas aeruginosa strain PAO1; test: aerobic growth of PAO1 in broth in ambient atmosphere; format: cell-based; details: for effects on aerobic growth attained by 17 h, single components: each alone: KNO2 to 3.5 mM, glutathione to 5 mM, ascorbate to 2.1 mM
Description: FIG. 1. […] Pseudomonas aeruginosa strain PAO1 is capable of growing in the absence of oxygen using nitrate for respiration. […] The studies presented in FIG. 1 examine whether glutathione influences the growth of PAO1 either in the presence or absence of nitrate under either ambient (aerobic) or anaerobic atmospheres.
(§2) FIG. 2. […] To test this possibility, reduced glutathione was titrated vs. increasing concentrations of KNO2 in either trypticase soy broth (TSB) in ambient atmosphere or in trypticase soy broth with nitrate (TSBN) (1% KNO3) under anaerobic atmosphere.
(§3) FIG. 3. […] These studies examined the question of the importance of the redox state of glutathione to its contributions to the inhibition by RNI and to the blocking of the glucose oxidase antimicrobial effects. Glutathione in either its reduced (GSH) or oxidized (GSSG) form was titrated in the presence or absence of 14 mM nitrite in TSB and PAO1 was grown in ambient atmosphere.
FIG. 6. […] If NO reacts with glutathione to generate nitrosoglutathione then gassing with NO in the presence of glutathione may be expected to yield greater activity than gassing first and then adding glutathione. To test this effect, LB broth was either pre-gassed with NO followed by titration of GSH or the LB broth aliquots containing various concentrations of GSH were gassed. Titration of NO was accomplished by varying the gassing times of the LB broth.
as §1
FIG. 8. […] Ascorbate was titrated over a checkerboard titration of glutathione and KNO2 in LB broth.
FIG. 9. […] In these experiments, varying concentrations of NO were achieved again by varying the gassing time (10, 15, 30 or 45 min) with 2.3% NO in N2 either in the presence (NO-GSH) or absence (NO-LB) of varying concentrations of glutathione. Glutathione was added to NO-LB in varying concentrations (NO-LB+GSH).

[4] = tested on: P. aeruginosa clinical isolate (C3873M)
Method: (§4) FIGS. 10A-B. Influences of bicarbonate on alginate production by different strains of P. aeruginosa under a 5% CO2 atmosphere. Alginate production of selected strains of P. aeruginosa surface grown in a CO2 incubator was quantitatively determined by a colorimetric assay. […] These three strains were then tested for their ability to make alginate under an atmosphere of 5% CO2 with increasing concentrations of NaHCO3(FIG. 10B).

[5] = tested on: PAO1; details: 5% CO2; increasing concentrations of NaHCO3
Method: as §4

[6] = tested on: Pa Mucoid laboratory derived from PAO1; details: 5% CO2; increasing concentrations of NaHCO3
Method: as §4

[7] = tested on: Pseudomonas aeruginosa strain PAO1; test: glucose oxidase / H2O2 mediated growth inhibition of PAO1; format: cell-based
Description: as §2, §3

[8] = absence of NO, glutathione and ascorbate concentrations and combinations of the study

N[C@@H](CCC(=O)N[C@@H](CSN=O)C(=O)NCC(=O)O)C(=O)O [GSNO, S-nitrosoglutathione, reference compound]
inhibition of growth, bacterial density (A=650 nm) at 18 h ([1]; GSNO titrated, TSBN (1% KNO3), without glutathione): concentration dependent inhibition

C=C1CC[C@@H]2[C@@H](C1)c1c(OC)cc(C(C)(C)CCCCCC)cc1OC2(C)C [L-759,656]
CB1/CB2 binding ratio [2]: > 1000

[N]=O [NO, nitric oxide, reference compound]
inhibition of aerobic growth by NO ([3]; LB broth gassed with NO, absence of glutathione): no discernible inhibition

O=C1O[C@H]([C@@H](O)CO)C(O)=C1O [ascorbate, ascorbic acid]
inhibition of growth in ambient atmosphere ([3]; 0.2 mM ascorbate with 7.5 mM glutathione, presence of nitrate): profound inhibition of growth | inhibition of aerobic growth ([3]; 2.1 mM ascorbate with 7.5 mM glutathione, absence of nitrate): total inhibition | inhibitory effects on aerobic growth [3, 8]: no inhibitory effects | effect on inhibition by KNO2 with glutathione ([3]; ascorbate added to KNO2 and glutathione, LB broth): enhanced | effect on aerobic growth attained by 17 h ([3]; ascorbate added to either glutathione or KNO2, LB broth): no discernible effect | enhancement of inhibition of aerobic growth ([3]; ascorbate titrated, 15 min delivery of NO, 2.5 mM GSH): concentration dependent ascorbate enhancement of inhibition | effects on aerobic growth attained by 17 h, single components ([3]; LB broth): neither KNO2 to 3.5 mM, glutathione to 5 mM nor ascorbate to 2.1 mM had discernible effects | effect on glutathione reduction of aerobic growth ([3]; increasing concentrations of ascorbic acid added to glutathione, LB broth): further enhanced | decrease in nitrate-dependent growth ([1]; increasing ascorbate in the presence of 2.5 mM glutathione): more pronounced | nitrate-dependent growth ([1]; increasing concentrations of ascorbate, absence of glutathione): dose dependent decrease in nitrate-dependent growth

O=C(O)O [bicarbonate, NaHCO3]
alginate production ([4]; 5% CO2, increasing concentrations of NaHCO3): inhibited | alginate production associated with the mucoidy phenotype of P. aeruginosa ([4]; preliminary studies): inhibits the alginate production | alginate production [5]: failed to make alginate | alginate production [6]: significantly enhanced

N[C@@H](CCC(=O)N[C@@H](CS)C(=O)NCC(=O)O)C(=O)O [glutathione, N—(N-L-γ-glutamyl-L-cysteinyl)glycine]
inhibition of aerobic growth, glutathione with NO ([3]; 2.5 mM glutathione, NO titrated by gassing time, LB broth): dose dependent NO inhibition of growth | inhibition of aerobic growth ([3]; 5 mM glutathione and ascorbate, presence versus absence of nitrate): greater inhibition of aerobic growth | inhibition of aerobic growth, glutathione with NO ([3]; 5 mM glutathione, lowest concentration of NO (10 minutes gassing time), LB broth): total inhibition | inhibition of aerobic growth, glutathione with NO ([3]; 5 mM glutathione, lowest concentration of NO, regardless of order of addition): total inhibition of growth | inhibition of growth, glutathione with nitrite ([3]; 6.4 mM GSH and 14 mM KNO2, TSB, ambient atmosphere): significant inhibition | growth yield at 14 h ([3]; 7.5 mM glutathione, LB broth with or without 1% nitrate, aerobic): reduced growth yield | inhibition of growth, glutathione with nitrite ([3]; 12.8 mM GSH and 7 mM KNO2, TSB, ambient atmosphere): significant inhibition | inhibition of PAO1 growth in the presence of nitrite ([3]; 14 mM nitrite, TSB, ambient atmosphere, molar equivalency): inhibition of PAO1 growth | enhancement of NO gas inhibition of aerobic growth ([3]; 0.5 relative concentration of NO, TSB): dose dependent enhancement of inhibition | inhibitory effects on aerobic growth [3, 8]: no inhibitory effects | effects on aerobic growth attained by 17 h, single components ([3]; LB broth): neither KNO2 to 3.5 mM, glutathione to 5 mM nor ascorbate to 2.1 mM had discernible effects | aerobic growth attained ([3]; glutathione titrated, LB broth): dose dependent reduction in the aerobic growth | lowest glutathione concentration at which synergistic inhibition was evident ([3]; in the presence of 1.75 mM KNO2, ascorbate titrated, LB broth): 2.5 mM | enhancement of NO gas inhibition of aerobic growth ([3]; lower NO concentrations, TSB): not at lower NO concentrations | aerobic growth of P. aeruginosa ([3]; nitrite and nitric oxide in the presence of GSH): inhibit the aerobic growth of P. aeruginosa | growth yield ([3]; reduced glutathione titrated, TSB, absence of nitrite): slight, but significant, concentration-dependent increase in growth yield | growth in an anaerobic atmosphere with nitrate ([1]; 2.5 mM and lower concentrations of glutathione, absence of ascorbate): permitted growth | nitrate dependent growth ([1]; 2.5 mM glutathione or less): no discernible effects | nitrate dependent growth ([1]; 5 mM glutathione): total inhibition | effect on GSNO inhibition of growth, bacterial density (A=650 nm) at 18 h ([1]; 6.4 mM glutathione with GSNO, TSBN (1% KNO3)): significantly enhanced | nitrate dependent growth ([1]; 7.5 mM glutathione): total inhibition | inhibition of growth ([1]; increasing GSH with nitrite concentrations not totally inhibitory by themselves, TSBN): further inhibition | use of nitrate, nitrite or nitric oxide for growth under anaerobic conditions ([1]; preliminary data, P. aeruginosa): limit the ability of P. aeruginosa to utilize nitrate, nitrite, or nitric oxide to grow under anaerobic conditions | anti-pseudomonal activities of GSNO and other nitric oxide donors ([1]; presence of exogenous glutathione): potentiated | growth inhibition of PAO1 by exogenous H2O2 ([7]; 14 mM GSH): blocked | protection from inhibition with the glucose oxidase system ([7]; TSB, ambient atmosphere): protected PAO1 from inhibition | protection from the growth inhibiting effects of glucose oxidase ([7]; increasing concentration of GSH): protected PAO1

O=N[O-].[K+] [nitrite, KNO2, reference compound]
inhibitory effects on aerobic growth ([3]; KNO2 in the presence of glutathione, LB broth): concentration dependent inhibitory effects | effects on aerobic growth attained by 17 h, single components ([3]; LB broth): neither KNO2 to 3.5 mM, glutathione to 5 mM nor ascorbate to 2.1 mM had discernible effects | lowest KNO2 concentration at which synergistic inhibition was evident ([3]; in the presence of 5 mM glutathione, ascorbate titrated, LB broth): 0.875 mM | inhibition of aerobic growth ([3]; nitrite to 14 mM, absence of glutathione, TSB): no discernible inhibition | inhibition of growth ([1]; KNO2 added, TSBN (1% KNO3), absence of glutathione): significant inhibition
